The test system of one data set is elav < APP/BACE-1 flies. Put plainly: Lifespan assay. The data set is classed as in vivo, Drosophila melanogaster. The following applies: males. Here is the method:
Groups of 20 newly emerged male elav < APP/BACE-1 flies, cultured in vials as stated previously, were separately transferred to vials containing media supplemented with acacetin (100, 300, and 500 μM) every 4 days. The controls received 0.1% DMSO. The median life time (T1/2) was defined as the time when the survivor function equaled 50%, because median survivorship is a more reliable index than mean survival time, as described by Chakraborty and colleagues. All treatments were repeated 10 times using 20 males per replicate.

The test system of another data set is human BACE-1. Put plainly: Western blot, BACE-1 protein in heads of elav < APP/BACE-1 flies. The data set is classed as in vivo, Drosophila melanogaster. The following applies: 20-day-old males. Here is the method: The elav < APP/BACE-1 flies were cultured from the egg stage, as described previously. The lysates were obtained from the heads of 50 male flies (20 days old) by placing the heads in 100 μL RIPA buffer (pH 8.0) containing a 1% protease inhibitor cocktail. The controls received 0.1% DMSO. The lysates were centrifuged at 14,000 rpm for 30 min at 4 °C. The protein content of the supernatant was determined using a Bradford Protein Assay kit (Sigma-Aldrich) and BSA was used as the standard. The total proteins (30 μg/sample for APP and BACE-1 detection; 70 μg/sample for Aβ detection) were mixed with an equal volume of 5× sample buffer[81] containing 40 mM of DL-dithiothreitol, boiled for 10 min, and then loaded onto 8, 10, and 12% sodium dodecyl sulfate-polyacrylamide gels using a Mini-Protean 3 electrophoresis cell (Bio-Rad, Hercules, CA, USA) for APP, APP-CTF (APP-αCTF and APP-βCTF) and AICD, BACE-1, and Aβ detection, respectively. After electrophoresis at 110 V in 2 h, the proteins from the gels were transferred onto a polyvinyl difluoride membrane (Pall Corporation, Pensacola, FL, USA) using an electroblotting apparatus. The membrane was then blocked with 5% skim milk (BD Difco, Flanklin Lakes, NJ, USA) in PBS containing 0.1% (v/v) Tween-20 (0.1% PBS-T) at room temperature for 1 h, and further incubated overnight at 4 °C with a 1:4,000 dilution of an anti-APP C-terminal antibody to detect the cleaved APP product, a 1:1,000 dilution of anti-BACE-1, and a 1:1,000 dilution of anti-amyloid (4G8). After washing with 0.1% PBS-T three times at 10 min intervals, the membranes were further incubated for 2 h with a goat anti-rabbit IgG H&L (HRP) secondary antibody at a1:4,000 dilution for APP and BACE-1 and a goat anti-mouse lgG-HRP at a 1:5,000 dilution for β-amyloid. […] The differences in protein expression were quantified using a Molecular Imager Gel Doc XR system (Bio-Rad, Hercules, CA, USA) and normalized to actin expression on the same membrane. The results are expressed as the means ± SEs of duplicate samples from three independent experiments.

A further data set has as its system APP-CTF. Put plainly: Western blot, APP-CTF in heads of elav < APP/BACE-1 flies. Format: in vivo, Drosophila melanogaster. The following applies: 100, 300, and 500 μM; 20-day-old males. As for the experimental part: The elav < APP/BACE-1 flies were cultured from the egg stage, as described previously. The lysates were obtained from the heads of 50 male flies (20 days old) by placing the heads in 100 μL RIPA buffer (pH 8.0) containing a 1% protease inhibitor cocktail. The controls received 0.1% DMSO. The lysates were centrifuged at 14,000 rpm for 30 min at 4 °C. The protein content of the supernatant was determined using a Bradford Protein Assay kit (Sigma-Aldrich) and BSA was used as the standard. The total proteins (30 μg/sample for APP and BACE-1 detection; 70 μg/sample for Aβ detection) were mixed with an equal volume of 5× sample buffer[81] containing 40 mM of DL-dithiothreitol, boiled for 10 min, and then loaded onto 8, 10, and 12% sodium dodecyl sulfate-polyacrylamide gels using a Mini-Protean 3 electrophoresis cell (Bio-Rad, Hercules, CA, USA) for APP, APP-CTF (APP-αCTF and APP-βCTF) and AICD, BACE-1, and Aβ detection, respectively. […] The differences in protein expression were quantified using a Molecular Imager Gel Doc XR system (Bio-Rad, Hercules, CA, USA) and normalized to actin expression on the same membrane. The results are expressed as the means ± SEs of duplicate samples from three independent experiments.

In another data set the test system is GMR < APP/BACE-1 flies. Briefly: Light and scanning electron microscopy of adult compound eyes. The data set is classed as in vivo, Drosophila melanogaster. Here is the method:
GMR < APP/BACE-1 flies were cultured from the egg stage in polystyrene vials containing standard media supplemented with acacetin (100, 300, and 500 μM) in 0.1% DMSO, based on the preliminary test results. The controls received 0.1% DMSO only. […] The morphology of the compound eyes was observed using an EZ4 HD stereo microscope (×35) equipped with an Integrated 3.0 Mega-Pixel CMOS camera (Leica, Hicksville, NY, USA). The flies with aberrant eye phenotypes were collected, and the number of the flies with dark deposits in the eye was counted.
For SEM, the anesthetized male flies (30 days old) were attached to a copper mount using silver paint as a conducting adhesive, as described previously. They were then put directly into the viewing chamber of an SEM without prior coating, as described by Hartman and Hayes[76]. The external surface morphology of the compound eye was visualized using a Supra 55VP field-emission scanning electron microscope (Carl Zeiss, Jena, Germany) operated at 15 kV.

A further data set deals with T1, recombinant human BACE-1 (Homo sapiens, UniProt P56817).
T1 construct: purchased R&D Systems (Minneapolis, MN, USA)
T1 sequence (P56817 46-501): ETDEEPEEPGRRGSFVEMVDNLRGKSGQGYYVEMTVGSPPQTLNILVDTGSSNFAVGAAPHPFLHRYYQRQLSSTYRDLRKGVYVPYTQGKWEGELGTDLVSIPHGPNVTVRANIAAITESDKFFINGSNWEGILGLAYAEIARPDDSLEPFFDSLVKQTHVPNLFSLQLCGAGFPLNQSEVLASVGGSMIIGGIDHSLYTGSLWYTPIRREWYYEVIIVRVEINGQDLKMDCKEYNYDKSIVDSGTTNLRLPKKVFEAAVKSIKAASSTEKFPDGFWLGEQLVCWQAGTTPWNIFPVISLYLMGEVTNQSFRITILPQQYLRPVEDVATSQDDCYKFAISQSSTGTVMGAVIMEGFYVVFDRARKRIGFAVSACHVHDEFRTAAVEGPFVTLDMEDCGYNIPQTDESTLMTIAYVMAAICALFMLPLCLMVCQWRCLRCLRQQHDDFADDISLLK
Briefly: FRET-based enzyme assay, BACE-1 inhibition. The data set is classed as biochemical.

Consider `COc1ccc(-c2cc(=O)c3c(O)cc(O)cc3o2)cc1` [acacetin], for which the “median life time (T1/2)” value in the data set on elav < APP/BACE-1 flies (100 μM, vehicle 26 days, elav-Gal4/+ 36 days) is listed as 31 days; in the data set with elav < APP/BACE-1 flies (300 and 500 μM), “did not significantly extend the T1/2”. Besides, the lifespan result with elav < APP/BACE-1 flies (100, 300, and 500 μM, vs vehicle-fed transgenic flies) is recorded as “did not significantly increase the lifespan”. Besides, the “BACE-1 protein levels, % of the control levels” value in the data set on human BACE-1 (100 μM) worked out at 81%; with human BACE-1 (300 μM) it was 75%; in the data set on human BACE-1 (500 μM), 74%. The “APP-CTF, % of the control levels” value in the data set on APP-CTF was “approximately 80%”. For the same compound, the “ratio of female flies with dark deposits in the eyes” value in the data set with GMR < APP/BACE-1 flies (100, 300, and 500 μM in media, 1-day-old females, vehicle DMSO […]) was 6.3–8.0%. Besides, in the data set with GMR < APP/BACE-1 flies (100, 300, and 500 μM in media, 1-day-old males, vehicle DMSO 18.7%), the “ratio of male flies with dark deposits in the eyes” value is 5.0–7.0%. In the data set with GMR < APP/BACE-1 flies (100, 300, and 500 μM, light microscopy, vs vehicle-fed flies), the “ommatidial fusion in the central side of the eyes” value is recorded as “significantly suppressed ommatidial fusion”. The “ommatidial fusion at the edges of the eyes” value in the data set with GMR < APP/BACE-1 flies (300 and 500 μM, light microscopy) is listed as “ameliorated ommatidial fusion”. The “fold more potent inhibitor of BACE-1 than maslinic acid” value on recombinant human BACE-1 (based on IC50 values) came to 5.5 fold. Moreover, the “fold more potent inhibitor of BACE-1 than oleanolic acid” value at recombinant human BACE-1 (based on IC50 values) was determined as 4.0 fold. Moreover, the IC50 on recombinant human BACE-1 (pH 4.5, 1 h at 25 °C, read-out: IC50, μM (95% CL)) came to 88.5 µM. Also, the “Slope ± SE” value at recombinant human BACE-1 (slope of concentration-inhibition fit, listed as Natural acacetin) is reported as 0.4 ± 0.04.

The values above are taken from publication PMC4632086, “Effects and possible mechanisms of action of acacetin on the behavior and eye morphology of Drosophila models of Alzheimer’s disease” (Scientific Reports, 2015).
